Reference: PubChem BioAssay (NCI)
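Compound exposure: 48 hours, 5 concentrations, 96-well plates. The concentration for 50% growth inhibition is given as GI50. TGI marks complete inhibition of growth.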

Columns and labels:
Assay in all cases: growth of human tumour cells (NCI), 48 h
A498 renal = system: A498 renal
SF-295 CNS = system: SF-295 CNS
HCT-116 colon = system: HCT-116 colon
XF 498 CNS = system: XF 498 CNS
HOP-62 NSCLC = system: HOP-62 NSCLC
COLO 205 colon = system: COLO 205 colon
LOX IMVI melanoma = system: LOX IMVI melanoma
CCRF-CEM leukemia = system: CCRF-CEM leukemia
MOLT-4 leukemia = system: MOLT-4 leukemia
SF-539 CNS = system: SF-539 CNS
OVCAR-3 ovarian = system: OVCAR-3 ovarian
M14 melanoma = system: M14 melanoma
OVCAR-5 ovarian = system: OVCAR-5 ovarian
LXFL 529 NSCLC = system: LXFL 529 NSCLC
OVCAR-4 ovarian = system: OVCAR-4 ovarian
SK-MEL-5 melanoma = system: SK-MEL-5 melanoma
HT29 colon = system: HT29 colon
IGROV1 ovarian = system: IGROV1 ovarian
UO-31 renal = system: UO-31 renal
OVCAR-8 ovarian = system: OVCAR-8 ovarian
ACHN renal = system: ACHN renal
HOP-92 NSCLC = system: HOP-92 NSCLC
HCT-15 colon = system: HCT-15 colon
SNB-75 CNS = system: SNB-75 CNS
786-0 renal = system: 786-0 renal
NCI-H23 lung = system: NCI-H23 lung
TK-10 renal = system: TK-10 renal
SNB-78 CNS = system: SNB-78 CNS
DMS 114 small cell lung = system: DMS 114 small cell lung
SK-OV-3 ovarian = system: SK-OV-3 ovarian
HOP-18 NSCLC = system: HOP-18 NSCLC
HCC-2998 colon = system: HCC-2998 colon
SF-268 CNS = system: SF-268 CNS
CAKI-1 renal = system: CAKI-1 renal
UACC-62 melanoma = system: UACC-62 melanoma
MALME-3M melanoma = system: MALME-3M melanoma
A549 NSCLC = system: A549 NSCLC
SN12C renal = system: SN12C renal
K-562 leukemia = system: K-562 leukemia
KM20L2 colon = system: KM20L2 colon
NCI-H460 lung = system: NCI-H460 lung
M19-MEL melanoma = system: M19-MEL melanoma
EKVX NSCLC = system: EKVX NSCLC
U251 CNS = system: U251 CNS
RPMI-8226 leukemia = system: RPMI-8226 leukemia
DMS 273 small cell lung = system: DMS 273 small cell lung
SW-620 colon = system: SW-620 colon
SK-MEL-2 melanoma = system: SK-MEL-2 melanoma
SNB-19 CNS = system: SNB-19 CNS

COc1cc[c]([Sn]([c]2ccc(OC)cc2)([c]2ccc(OC)cc2)[c]2ccc(OC)cc2)cc1 was tested, and the GI50 (A498 renal) was 14.2 µM, the TGI (A498 renal) was 76.3 µM and the GI50 (SF-295 CNS) was 39.4 µM. It also gave a TGI (SF-295 CNS) of over 100 µM, a GI50 (HCT-116 colon) of 8.92 µM and a GI50 (XF 498 CNS) of over 100 µM. For the same compound, the TGI (XF 498 CNS) was over 100 µM, the GI50 (HOP-62 NSCLC) was 81.8 µM and the TGI (HOP-62 NSCLC) was over 100 µM. For the same compound, the GI50 (COLO 205 colon) was 18.3 µM, the TGI (COLO 205 colon) was 41.8 µM and the GI50 (LOX IMVI melanoma) was 13.6 µM. For the same compound, the TGI (LOX IMVI melanoma) was 29.4 µM, the GI50 (CCRF-CEM leukemia) was 20.7 µM and the TGI (CCRF-CEM leukemia) was 69.8 µM. The GI50 (MOLT-4 leukemia) was 10.7 µM, the TGI (MOLT-4 leukemia) was 39 µM and the GI50 (SF-539 CNS) was 16.8 µM. The TGI (SF-539 CNS) was 48.6 µM, the GI50 (OVCAR-3 ovarian) was 12.5 µM and the TGI (OVCAR-3 ovarian) was 33.7 µM. It also gave a GI50 (M14 melanoma) of 16.7 µM, a TGI (M14 melanoma) of 36 µM and a GI50 (OVCAR-5 ovarian) of 33.3 µM. It also gave a TGI (OVCAR-5 ovarian) of over 100 µM, a GI50 (LXFL 529 NSCLC) of 15.8 µM and a TGI (LXFL 529 NSCLC) of 36.4 µM. The GI50 (OVCAR-4 ovarian) was 16.8 µM, the TGI (OVCAR-4 ovarian) was 62.8 µM and the GI50 (SK-MEL-5 melanoma) was 12.7 µM. It also gave a TGI (SK-MEL-5 melanoma) of 28.5 µM, a GI50 (HT29 colon) of 20.3 µM and a TGI (HT29 colon) of over 100 µM. The GI50 (IGROV1 ovarian) was 25.9 µM, the TGI (IGROV1 ovarian) was over 100 µM and the GI50 (UO-31 renal) was 14.1 µM. The TGI (UO-31 renal) was 38 µM, the GI50 (OVCAR-8 ovarian) was 27.1 µM and the TGI (OVCAR-8 ovarian) was over 100 µM. For the same compound, the GI50 (ACHN renal) was 17.4 µM, the TGI (ACHN renal) was 96.7 µM and the GI50 (HOP-92 NSCLC) was 4.2 µM. It also gave a TGI (HOP-92 NSCLC) of 22.8 µM, a GI50 (HCT-15 colon) of over 100 µM and a TGI (HCT-15 colon) of over 100 µM. The GI50 (SNB-75 CNS) was 24 µM, the TGI (SNB-75 CNS) was over 100 µM and the GI50 (786-0 renal) was 18.1 µM. For the same compound, the TGI (786-0 renal) was 43.5 µM, the GI50 (NCI-H23 lung) was 23.3 µM and the TGI (NCI-H23 lung) was over 100 µM. It also gave a GI50 (TK-10 renal) of 17.9 µM, a TGI (TK-10 renal) of 51.1 µM and a GI50 (SNB-78 CNS) of 23.7 µM. For the same compound, the TGI (SNB-78 CNS) was 71 µM, the GI50 (DMS 114 small cell lung) was 23.5 µM and the TGI (DMS 114 small cell lung) was over 100 µM. The GI50 (SK-OV-3 ovarian) was 96.5 µM, the TGI (SK-OV-3 ovarian) was over 100 µM and the GI50 (HOP-18 NSCLC) was 3.81 µM. The TGI (HOP-18 NSCLC) was 21.1 µM, the GI50 (HCC-2998 colon) was 17.8 µM and the TGI (HCC-2998 colon) was 50.5 µM. For the same compound, the GI50 (SF-268 CNS) was 29.7 µM, the TGI (SF-268 CNS) was over 100 µM and the GI50 (CAKI-1 renal) was 10.9 µM. For the same compound, the TGI (CAKI-1 renal) was 69.2 µM, the GI50 (UACC-62 melanoma) was 17.9 µM and the TGI (UACC-62 melanoma) was 69.3 µM. The GI50 (MALME-3M melanoma) was 3.31 µM, the TGI (MALME-3M melanoma) was 8.43 µM and the GI50 (A549 NSCLC) was 25.9 µM. For the same compound, the TGI (A549 NSCLC) was over 100 µM, the GI50 (SN12C renal) was over 100 µM and the TGI (SN12C renal) was over 100 µM. It also gave a GI50 (K-562 leukemia) of 16.2 µM, a TGI (K-562 leukemia) of 56.1 µM and a GI50 (KM20L2 colon) of 18.2 µM. The TGI (KM20L2 colon) was 47 µM, the GI50 (NCI-H460 lung) was 30.5 µM and the TGI (NCI-H460 lung) was over 100 µM. It also gave a GI50 (M19-MEL melanoma) of 34.6 µM, a TGI (M19-MEL melanoma) of over 100 µM and a GI50 (EKVX NSCLC) of 35 µM. For the same compound, the TGI (EKVX NSCLC) was over 100 µM, the GI50 (U251 CNS) was 20.8 µM and the TGI (U251 CNS) was 72.2 µM. The GI50 (RPMI-8226 leukemia) was 11.2 µM, the TGI (RPMI-8226 leukemia) was 35.1 µM and the GI50 (DMS 273 small cell lung) was 25.2 µM. It also gave a TGI (DMS 273 small cell lung) of 96.5 µM, a GI50 (SW-620 colon) of 18.9 µM and a TGI (SW-620 colon) of 55.9 µM. For the same compound, the GI50 (SK-MEL-2 melanoma) was 28.2 µM, the TGI (SK-MEL-2 melanoma) was over 100 µM and the GI50 (SNB-19 CNS) was 28.5 µM. The TGI (SNB-19 CNS) was over 100 µM.
